Reference: ChEMBL document CHEMBL1201862, “PubChem BioAssay data set” (2004)
Active and inactive are the calls of the source.

Key:
[1] = target: Mu-type opioid receptor (Homo sapiens, UniProt P35372); assay: (§1) Counterscreen for agonists of heterodimerization of the mu 1 (OPRM1) and delta 1 (OPRD1) opioid receptors: Luminescence-based cell-based high throughput dose response assay to identify agonists of OPRM1 homodimerization.; assay type: functional
[2] = target: 5-hydroxytryptamine receptor 5A (Homo sapiens, UniProt P47898); assay: Counterscreen for agonists of OPRM1-OPRD1 heterodimerization: luminescence-based cell-based high throughput dose response assay to identify agonists of 5-hydroxytryptamine (serotonin) 5A receptor (HTR5A). [Related pubchem assays (depositor defined):AID504326, AID504355, AID504692, AID504904, AID504905]; assay type: functional
Chain of 5-hydroxytryptamine receptor 5A (P47898 whole entry): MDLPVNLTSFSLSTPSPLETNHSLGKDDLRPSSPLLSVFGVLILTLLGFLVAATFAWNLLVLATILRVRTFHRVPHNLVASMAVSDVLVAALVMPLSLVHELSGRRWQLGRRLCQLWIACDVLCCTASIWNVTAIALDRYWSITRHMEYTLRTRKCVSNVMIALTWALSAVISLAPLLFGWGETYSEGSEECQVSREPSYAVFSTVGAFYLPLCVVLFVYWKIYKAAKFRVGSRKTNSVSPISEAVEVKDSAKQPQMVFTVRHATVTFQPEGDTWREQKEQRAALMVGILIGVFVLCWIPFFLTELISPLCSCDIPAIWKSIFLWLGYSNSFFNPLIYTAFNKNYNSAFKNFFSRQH

[3] = target: Delta-type opioid receptor (Homo sapiens, UniProt P41143); assay: as §1, with “of OPRD1” for “of OPRM1”, “homodimerization. [Related pubchem assays (depositor defined):AID504326, AID504355, AID504692, AID504904, AID504905]” for “homodimerization.”; assay type: functional
Chain of Delta-type opioid receptor (P41143 whole entry): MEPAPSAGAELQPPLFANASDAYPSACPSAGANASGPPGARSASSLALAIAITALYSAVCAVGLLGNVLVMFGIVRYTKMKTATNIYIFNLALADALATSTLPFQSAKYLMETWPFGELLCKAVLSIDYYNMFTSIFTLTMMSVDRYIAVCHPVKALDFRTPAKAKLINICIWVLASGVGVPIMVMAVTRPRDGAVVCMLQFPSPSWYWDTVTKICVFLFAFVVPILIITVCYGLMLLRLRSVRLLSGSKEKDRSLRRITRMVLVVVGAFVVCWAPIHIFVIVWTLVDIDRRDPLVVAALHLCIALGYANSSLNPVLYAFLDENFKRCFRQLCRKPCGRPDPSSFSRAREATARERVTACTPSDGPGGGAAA

[4] = target: Opioid receptors; mu & delta (Homo sapiens, UniProt P41143+P35372); assay: OPRM1-OPRD1 heterodimer agonist potency – cell-based, luminescence, dose response (AID 588407); assay type: functional
[5] = target: UDP-galactopyranose mutase (Mycobacterium tuberculosis, UniProt P9WIQ1); assay: Inhibitors of Mycobacterium tuberculosis UDP-galactopyranose mutase (UGM) enzyme Measured in Biochemical System Using Plate Reader - 2105-02_Inhibitor_Dose_CherryPick_Activity. [Related pubchem assays (depositor defined):AID504439]
Chain of UDP-galactopyranose mutase (P9WIQ1 whole entry, the tested form may be a part): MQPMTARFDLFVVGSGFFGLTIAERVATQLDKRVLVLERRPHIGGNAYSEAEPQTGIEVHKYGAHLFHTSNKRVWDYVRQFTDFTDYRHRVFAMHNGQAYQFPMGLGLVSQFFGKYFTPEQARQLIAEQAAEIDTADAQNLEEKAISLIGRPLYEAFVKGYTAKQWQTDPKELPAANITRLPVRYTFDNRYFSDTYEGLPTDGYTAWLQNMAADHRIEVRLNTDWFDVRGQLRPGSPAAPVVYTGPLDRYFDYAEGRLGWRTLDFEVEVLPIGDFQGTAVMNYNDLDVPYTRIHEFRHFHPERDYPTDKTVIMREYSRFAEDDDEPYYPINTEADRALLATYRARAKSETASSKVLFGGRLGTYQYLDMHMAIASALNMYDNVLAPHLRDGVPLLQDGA

[6] = target: T1, RNA-binding protein pos-1 (Caenorhabditis elegans, UniProt G5EF15); assay: disruptors of C. elegans POS-1 RNA interaction – biochemical, fluorescence polarization, dose response (AID 1964);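 further: purified POS-1 fused to maltose binding protein made in E. coli; potency of compounds blocking POS-1 binding to fluorescent RNA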
T1 sequence (G5EF15 whole entry): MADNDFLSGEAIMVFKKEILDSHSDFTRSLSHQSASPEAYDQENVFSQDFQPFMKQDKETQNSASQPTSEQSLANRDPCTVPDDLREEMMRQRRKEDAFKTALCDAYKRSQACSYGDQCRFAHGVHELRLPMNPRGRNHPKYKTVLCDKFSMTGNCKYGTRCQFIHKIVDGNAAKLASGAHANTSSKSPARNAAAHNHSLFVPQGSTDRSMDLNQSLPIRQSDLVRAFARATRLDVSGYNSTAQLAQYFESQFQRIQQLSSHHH

[7] = target: T2, ORF 73 (Human herpesvirus 8, UniProt O40947); assay: KSHV LANA DNA-binding disruption – biochemical, fluorescence polarization, cherry-picked samples, dose response (AID 504725); design: species or system Human gammaherpesvirus 8;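 further: fluorescence polarization of a labeled DNA duplex reporting LANA DNA binding; potency is for inhibitors that block LANA binding to the DNA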
T2 sequence (O40947 whole entry): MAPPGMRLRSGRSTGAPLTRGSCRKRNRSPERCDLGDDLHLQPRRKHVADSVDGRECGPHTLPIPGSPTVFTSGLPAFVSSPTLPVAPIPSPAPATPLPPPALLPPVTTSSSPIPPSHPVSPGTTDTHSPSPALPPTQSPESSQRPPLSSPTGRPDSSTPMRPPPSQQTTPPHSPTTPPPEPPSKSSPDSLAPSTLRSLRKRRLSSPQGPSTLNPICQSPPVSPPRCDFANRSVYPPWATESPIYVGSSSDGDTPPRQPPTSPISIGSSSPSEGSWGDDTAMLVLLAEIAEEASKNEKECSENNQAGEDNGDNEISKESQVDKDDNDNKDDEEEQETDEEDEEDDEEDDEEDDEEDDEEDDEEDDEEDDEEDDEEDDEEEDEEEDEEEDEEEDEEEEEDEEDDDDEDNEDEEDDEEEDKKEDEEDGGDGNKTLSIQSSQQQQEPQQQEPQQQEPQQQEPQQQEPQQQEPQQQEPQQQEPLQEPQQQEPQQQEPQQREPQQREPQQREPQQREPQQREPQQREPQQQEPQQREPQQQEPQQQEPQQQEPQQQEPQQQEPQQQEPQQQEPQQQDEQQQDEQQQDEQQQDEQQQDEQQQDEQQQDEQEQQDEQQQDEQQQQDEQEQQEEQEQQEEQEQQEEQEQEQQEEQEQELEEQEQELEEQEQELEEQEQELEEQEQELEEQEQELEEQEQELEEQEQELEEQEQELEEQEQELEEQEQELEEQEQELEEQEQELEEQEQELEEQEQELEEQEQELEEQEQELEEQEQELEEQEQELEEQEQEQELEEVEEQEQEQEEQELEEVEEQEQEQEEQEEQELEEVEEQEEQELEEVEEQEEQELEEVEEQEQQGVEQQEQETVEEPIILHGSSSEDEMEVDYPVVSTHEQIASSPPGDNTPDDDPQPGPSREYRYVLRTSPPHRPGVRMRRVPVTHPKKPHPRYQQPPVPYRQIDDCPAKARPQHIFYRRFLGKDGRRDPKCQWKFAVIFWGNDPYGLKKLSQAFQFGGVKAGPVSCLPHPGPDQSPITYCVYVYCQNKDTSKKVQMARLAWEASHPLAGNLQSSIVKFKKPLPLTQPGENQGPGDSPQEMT

[8] = target: T3, Zinc finger protein mex-5 (Caenorhabditis elegans, UniProt Q9XUB2); assay: potency of MEX-5 RNA-binding blockers – biochemical, C. elegans, fluorescence polarization, dose response (AID 1960)
T3 sequence (Q9XUB2 whole entry): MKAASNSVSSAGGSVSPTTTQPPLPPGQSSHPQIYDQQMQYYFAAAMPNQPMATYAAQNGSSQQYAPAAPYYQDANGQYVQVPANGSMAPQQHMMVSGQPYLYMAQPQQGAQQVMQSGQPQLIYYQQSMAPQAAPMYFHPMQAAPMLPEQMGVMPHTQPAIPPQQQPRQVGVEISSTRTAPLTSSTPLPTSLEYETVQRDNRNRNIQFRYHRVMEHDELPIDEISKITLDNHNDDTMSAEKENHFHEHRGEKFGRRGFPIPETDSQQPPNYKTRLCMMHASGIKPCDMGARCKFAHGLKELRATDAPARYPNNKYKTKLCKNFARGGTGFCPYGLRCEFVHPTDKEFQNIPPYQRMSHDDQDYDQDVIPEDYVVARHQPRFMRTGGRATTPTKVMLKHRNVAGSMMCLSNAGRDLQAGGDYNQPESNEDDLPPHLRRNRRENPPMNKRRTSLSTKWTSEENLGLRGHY

[9] = test system: Escherichia coli; assay: microbe, parasite or virus in culture
[10] = test system: Escherichia coli; assay: microbe, parasite or virus in culture; remark: listed apart in the source
[11] = target: Nonstructural protein 1 (Influenza A virus, UniProt Q194T2); assay type: functional, Influenza A virus (A/California/07/2009(H1N1))
Chain of Nonstructural protein 1 (Q194T2 whole entry): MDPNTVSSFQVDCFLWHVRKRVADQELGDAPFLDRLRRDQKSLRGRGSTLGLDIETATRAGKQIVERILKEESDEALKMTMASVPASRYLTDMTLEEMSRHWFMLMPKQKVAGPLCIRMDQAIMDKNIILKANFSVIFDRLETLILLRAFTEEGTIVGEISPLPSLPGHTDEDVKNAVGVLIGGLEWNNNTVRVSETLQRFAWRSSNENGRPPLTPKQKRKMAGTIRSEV

[12] = target: T4, Hexokinase HKDC1 (Homo sapiens, UniProt Q2TB90); assay: inhibition of HKDC1 glucose phosphorylation – biochemical, W721R variant, dose response (AID 504729); assay type: functional
T4 sequence (Q2TB90 whole entry): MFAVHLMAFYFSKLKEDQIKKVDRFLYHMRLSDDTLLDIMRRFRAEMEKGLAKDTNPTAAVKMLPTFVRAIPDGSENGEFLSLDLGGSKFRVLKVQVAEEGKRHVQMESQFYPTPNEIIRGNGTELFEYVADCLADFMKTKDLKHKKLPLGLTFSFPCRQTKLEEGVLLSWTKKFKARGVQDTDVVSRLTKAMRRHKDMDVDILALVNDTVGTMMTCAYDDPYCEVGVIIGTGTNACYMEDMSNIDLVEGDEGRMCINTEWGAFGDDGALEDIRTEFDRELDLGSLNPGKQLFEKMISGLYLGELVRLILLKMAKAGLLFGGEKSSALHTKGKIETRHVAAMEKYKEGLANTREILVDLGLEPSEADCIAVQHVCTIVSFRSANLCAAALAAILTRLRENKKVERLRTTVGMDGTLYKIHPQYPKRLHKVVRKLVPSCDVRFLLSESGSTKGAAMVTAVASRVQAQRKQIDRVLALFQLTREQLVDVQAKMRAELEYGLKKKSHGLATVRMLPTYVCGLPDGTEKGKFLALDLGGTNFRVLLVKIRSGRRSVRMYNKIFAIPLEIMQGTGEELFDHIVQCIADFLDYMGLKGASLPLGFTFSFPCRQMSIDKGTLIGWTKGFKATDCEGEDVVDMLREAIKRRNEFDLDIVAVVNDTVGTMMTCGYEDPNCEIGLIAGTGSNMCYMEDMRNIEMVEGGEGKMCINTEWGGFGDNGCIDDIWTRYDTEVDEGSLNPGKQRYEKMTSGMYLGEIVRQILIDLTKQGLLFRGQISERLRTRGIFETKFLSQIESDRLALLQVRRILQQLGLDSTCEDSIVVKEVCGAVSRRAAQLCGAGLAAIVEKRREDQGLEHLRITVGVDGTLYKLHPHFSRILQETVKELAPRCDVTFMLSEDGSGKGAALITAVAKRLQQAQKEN

[13] = target: Glucose-6-phosphate 1-dehydrogenase (Homo sapiens, UniProt P11413); assay: inhibition of Homo sapiens G6PD, dose series – biochemical, fluorescence, selectivity assay for P. falciparum G6PD inhibitor project, dose response (AID 504792); assay type: functional
Chain of Glucose-6-phosphate 1-dehydrogenase (P11413 whole entry): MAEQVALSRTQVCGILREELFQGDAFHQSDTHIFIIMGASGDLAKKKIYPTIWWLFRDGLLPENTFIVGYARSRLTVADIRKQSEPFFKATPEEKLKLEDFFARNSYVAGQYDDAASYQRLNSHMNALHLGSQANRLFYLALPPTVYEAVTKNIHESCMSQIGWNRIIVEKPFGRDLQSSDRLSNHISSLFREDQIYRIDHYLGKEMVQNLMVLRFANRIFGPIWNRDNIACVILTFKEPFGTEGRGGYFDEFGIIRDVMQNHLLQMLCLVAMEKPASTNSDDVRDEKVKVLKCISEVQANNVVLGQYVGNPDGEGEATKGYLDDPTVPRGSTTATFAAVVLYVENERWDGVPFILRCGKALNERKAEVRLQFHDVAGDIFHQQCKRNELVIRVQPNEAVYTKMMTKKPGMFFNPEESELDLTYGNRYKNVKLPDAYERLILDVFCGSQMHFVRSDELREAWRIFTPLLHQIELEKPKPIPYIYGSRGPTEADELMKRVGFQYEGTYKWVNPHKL

[14] = target: Beta-galactosidase (Escherichia coli, UniProt Q8VNN2); assay: detection-enzyme interference by beta-gal modulators – biochemical, E. coli enzyme, set 3, artefact control for CCR6 antagonist project, dose response (AID 504712); assay type: functional
Chain of Beta-galactosidase (Q8VNN2 whole entry): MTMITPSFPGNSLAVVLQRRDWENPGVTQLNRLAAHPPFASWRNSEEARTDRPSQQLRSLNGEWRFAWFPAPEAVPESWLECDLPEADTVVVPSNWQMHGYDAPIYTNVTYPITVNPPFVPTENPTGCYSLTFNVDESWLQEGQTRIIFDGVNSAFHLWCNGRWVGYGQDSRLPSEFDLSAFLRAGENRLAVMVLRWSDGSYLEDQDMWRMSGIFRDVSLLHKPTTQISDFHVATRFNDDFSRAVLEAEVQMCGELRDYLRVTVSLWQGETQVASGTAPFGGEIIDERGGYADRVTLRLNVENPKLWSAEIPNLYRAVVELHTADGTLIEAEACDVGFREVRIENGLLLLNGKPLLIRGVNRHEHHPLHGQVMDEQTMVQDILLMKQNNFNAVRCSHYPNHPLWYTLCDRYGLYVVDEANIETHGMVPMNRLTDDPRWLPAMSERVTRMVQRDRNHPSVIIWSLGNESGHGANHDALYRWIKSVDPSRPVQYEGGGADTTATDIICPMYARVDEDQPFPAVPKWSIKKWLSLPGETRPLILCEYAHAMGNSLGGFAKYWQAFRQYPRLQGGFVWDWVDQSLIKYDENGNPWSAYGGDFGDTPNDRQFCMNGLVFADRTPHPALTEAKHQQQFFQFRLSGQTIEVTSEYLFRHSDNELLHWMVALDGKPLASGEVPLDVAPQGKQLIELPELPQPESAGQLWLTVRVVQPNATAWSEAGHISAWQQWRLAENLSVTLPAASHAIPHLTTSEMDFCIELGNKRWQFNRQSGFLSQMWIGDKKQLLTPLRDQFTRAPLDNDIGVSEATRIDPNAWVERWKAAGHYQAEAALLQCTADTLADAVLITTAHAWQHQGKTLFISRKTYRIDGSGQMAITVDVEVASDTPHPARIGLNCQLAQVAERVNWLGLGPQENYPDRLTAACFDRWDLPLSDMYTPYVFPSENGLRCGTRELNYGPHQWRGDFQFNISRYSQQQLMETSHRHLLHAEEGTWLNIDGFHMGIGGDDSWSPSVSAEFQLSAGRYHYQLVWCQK

[15] = viability loss in THP-1 monocytes – THP-1 cells, cytotoxicity control for Vif-APOBEC3G degradation inhibitor project, dose response (AID 1117359); assay type: functional; settings: THP-1
[16] = target: Genome polyprotein (dengue virus type 2, UniProt P29990); assay: flavivirus cap methylation enzyme inhibition – biochemical, confirmation dose response, primary screen (AID 588689); assay type: functional
Chain of Genome polyprotein (P29990 2492-3391 limits assumed): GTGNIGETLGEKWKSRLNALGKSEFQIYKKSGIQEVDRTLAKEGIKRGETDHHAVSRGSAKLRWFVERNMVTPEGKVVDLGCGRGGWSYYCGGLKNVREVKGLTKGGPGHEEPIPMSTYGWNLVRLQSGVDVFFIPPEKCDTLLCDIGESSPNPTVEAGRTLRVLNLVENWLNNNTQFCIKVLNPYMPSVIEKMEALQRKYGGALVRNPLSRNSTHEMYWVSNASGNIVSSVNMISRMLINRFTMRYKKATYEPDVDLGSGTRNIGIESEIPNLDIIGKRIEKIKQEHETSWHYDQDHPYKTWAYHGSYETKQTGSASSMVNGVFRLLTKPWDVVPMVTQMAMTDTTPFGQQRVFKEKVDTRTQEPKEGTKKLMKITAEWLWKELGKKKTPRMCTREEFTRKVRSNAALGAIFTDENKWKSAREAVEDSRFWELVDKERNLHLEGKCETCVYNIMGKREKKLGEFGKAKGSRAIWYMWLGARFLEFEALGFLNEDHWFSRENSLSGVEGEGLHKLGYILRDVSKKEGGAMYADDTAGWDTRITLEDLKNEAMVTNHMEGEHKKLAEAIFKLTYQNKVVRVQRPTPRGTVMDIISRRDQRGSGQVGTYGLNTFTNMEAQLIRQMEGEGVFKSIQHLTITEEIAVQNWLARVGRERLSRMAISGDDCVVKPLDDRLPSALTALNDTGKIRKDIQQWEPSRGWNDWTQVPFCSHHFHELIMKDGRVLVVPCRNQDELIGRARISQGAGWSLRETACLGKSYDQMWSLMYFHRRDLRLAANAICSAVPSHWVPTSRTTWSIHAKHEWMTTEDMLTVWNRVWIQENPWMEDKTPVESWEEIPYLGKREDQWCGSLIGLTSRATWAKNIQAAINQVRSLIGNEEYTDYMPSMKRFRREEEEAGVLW

[17] = target: T5, Histone-lysine N-methyltransferase NSD2 (Homo sapiens, UniProt O96028); assay type: biochemical
T5 sequence (O96028 whole entry): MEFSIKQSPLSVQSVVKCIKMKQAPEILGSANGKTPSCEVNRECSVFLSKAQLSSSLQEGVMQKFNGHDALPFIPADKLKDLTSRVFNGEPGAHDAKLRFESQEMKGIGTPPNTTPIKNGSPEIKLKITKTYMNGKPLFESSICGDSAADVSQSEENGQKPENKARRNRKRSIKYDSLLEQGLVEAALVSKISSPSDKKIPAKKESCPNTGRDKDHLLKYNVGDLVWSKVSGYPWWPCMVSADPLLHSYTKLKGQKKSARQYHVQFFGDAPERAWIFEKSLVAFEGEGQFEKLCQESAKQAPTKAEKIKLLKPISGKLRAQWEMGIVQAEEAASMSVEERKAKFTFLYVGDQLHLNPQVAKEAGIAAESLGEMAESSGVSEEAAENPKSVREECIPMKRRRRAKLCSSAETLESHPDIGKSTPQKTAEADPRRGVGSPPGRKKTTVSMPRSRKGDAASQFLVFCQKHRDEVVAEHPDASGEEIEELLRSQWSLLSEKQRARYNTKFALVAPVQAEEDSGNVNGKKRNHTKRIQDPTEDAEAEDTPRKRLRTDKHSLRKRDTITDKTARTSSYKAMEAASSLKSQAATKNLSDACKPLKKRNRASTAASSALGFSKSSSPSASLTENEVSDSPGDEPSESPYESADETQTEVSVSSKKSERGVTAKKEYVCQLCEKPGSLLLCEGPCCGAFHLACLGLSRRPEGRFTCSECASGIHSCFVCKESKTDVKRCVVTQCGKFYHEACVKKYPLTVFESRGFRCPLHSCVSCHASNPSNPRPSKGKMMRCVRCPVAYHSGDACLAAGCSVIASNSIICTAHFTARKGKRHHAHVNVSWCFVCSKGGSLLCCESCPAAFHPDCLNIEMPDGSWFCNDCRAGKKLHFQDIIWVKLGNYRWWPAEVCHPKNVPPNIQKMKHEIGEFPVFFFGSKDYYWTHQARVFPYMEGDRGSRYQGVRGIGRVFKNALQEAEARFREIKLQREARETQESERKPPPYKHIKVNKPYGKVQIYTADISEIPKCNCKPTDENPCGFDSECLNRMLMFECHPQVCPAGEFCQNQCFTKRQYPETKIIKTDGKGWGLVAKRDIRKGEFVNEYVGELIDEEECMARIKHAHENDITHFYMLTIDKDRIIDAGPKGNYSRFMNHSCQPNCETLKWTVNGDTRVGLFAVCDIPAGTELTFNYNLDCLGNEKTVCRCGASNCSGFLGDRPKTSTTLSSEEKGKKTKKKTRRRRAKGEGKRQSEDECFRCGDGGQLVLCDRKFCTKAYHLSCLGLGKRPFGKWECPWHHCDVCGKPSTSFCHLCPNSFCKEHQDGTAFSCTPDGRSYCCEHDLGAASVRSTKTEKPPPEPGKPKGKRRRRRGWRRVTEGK

[18] = test system: Vero; assay: viability of Vero cells under compound – cytotoxicity control for flavivirus capping enzyme inhibitors (AID 588742); assay type: functional; settings: Chlorocebus sabaeus

Chain of Mu-type opioid receptor (P35372 whole entry): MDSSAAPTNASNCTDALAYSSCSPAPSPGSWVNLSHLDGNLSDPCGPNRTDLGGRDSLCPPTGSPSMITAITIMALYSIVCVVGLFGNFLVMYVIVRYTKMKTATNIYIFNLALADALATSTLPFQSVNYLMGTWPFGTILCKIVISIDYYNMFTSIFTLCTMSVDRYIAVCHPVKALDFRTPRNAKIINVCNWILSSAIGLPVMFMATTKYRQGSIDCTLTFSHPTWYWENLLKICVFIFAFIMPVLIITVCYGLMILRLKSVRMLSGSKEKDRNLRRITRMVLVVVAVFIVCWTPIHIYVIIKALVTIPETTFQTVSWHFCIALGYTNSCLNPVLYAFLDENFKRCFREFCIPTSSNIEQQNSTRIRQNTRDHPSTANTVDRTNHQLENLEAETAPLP

## COc1ccc(NC(=O)COc2ccccc2C(=O)NCC(c2ccccc2)N(C)C)cc1Cl (stereo not drawn)
[1]
  EC50: > 92.5 µM (inactive)
[2]
  EC50: > 92.5 µM (inactive)
[3]
  EC50: 9.79 µM (active)
[4]
  EC50: > 3.425 µM

## Cc1ccc(C)c(N2CCN(C(=O)c3cc4ccccn4n3)CC2)c1
[5]
  AC50: 177 µM (active)
[6]
  EC50: 72.9 µM (active)
[7]
  AC50: 269 µM (active)
[8]
  EC50: 33.7 µM (active)

## Cc1nn(C)cc1S(=O)(=O)Nc1ccccc1Br
[9]
  AC50: 66.8 µM (active)
[10]
  AC50: 65.8 µM (active)

## CC1COCC(C)N1C1=C(Cl)C(=O)c2ccccc2C1=O (stereo not drawn)
[11]
  IC50: 17.9 µM (active)
[12]
  IC50: > 80 µM (inactive)
[13]
  IC50: 72.9 µM (inactive)
[14]
  IC50: > 66.6 µM (inactive)
[15]
  CC50: 16.1 µM (active)
[16]
  IC50: 16.2 µM (active)
[17]
  AC50: 0.873 µM (active)
[18]
  CC50: 23.4 µM (active)
